Experimental data from patent publication US8350062B2, “Synthesis and anticancer activity of new actin-targeting small-molecule agents” (priority 2009, dated 2013).

How the values were obtained:
Assay type in all cases: cell-based, human
[1] = tested on: F-actin in DU145 prostate cancer cell line; experiment: F-actin depolymerization in DU145 prostate cancer cell line
From the text: We also examined the ability of 10 to depolymerize F-actin in live cells. The actin cytoskeleton can be readily visualized by fluorescent microscopy following Alexa Fluor 488 phalloidin staining.

A549/ATCC = experiment: NCI 60 cell line single dose screen; conditions: A549/ATCC (Non-Small Cell Lung Cancer), 10 micromolar, 48 h
From the text: (§1) Analog 10 was screened utilizing 60 different human tumor cell lines, representing leukemia, melanoma and cancers of the lung, colon, brain, ovary, breast, prostate, and kidney in order to show selective growth inhibition or cell killing of particular tumor cell lines. This screen is unique in that the complexity of a 60 cell line dose response produced by a given compound results in a biological response pattern which can be utilized in pattern recognition algorithms (COMPARE program. See: http://dtp.nci.nih.gov/docs/compare/compare.html). Using these algorithms, it is possible to assign a putative mechanism of action to a test compound, or to determine that the response pattern is unique and not similar to that of any of the standard prototype compounds included in the NCI database. In addition, following characterization of various cellular molecular targets in the 60 cell lines, it may be possible to select compounds most likely to interact with a specific molecular target.
(§2) The screening is a two-stage process, beginning with the evaluation of the compound against the 60 cell lines at a single dose of 10 uM.
(§3) The human tumor cell lines of the cancer screening panel are grown in RPMI 1640 medium containing 5% fetal bovine serum and 2 mM L-glutamine. For a typical screening experiment, cells are inoculated into 96 well microtiter plates in 100 μL at plating densities ranging from 5,000 to 40,000 cells/well depending on the doubling time of individual cell lines. After cell inoculation, the microtiter plates are incubated at 37° C., 5% CO2, 95% air and 100% relative humidity for 24 h prior to addition of experimental drug.
(§4) After 24 h, two plates of each cell line are fixed in situ with TCA, to represent a measurement of the cell population for each cell line at the time of drug addition (Tz). Experimental drugs are solubilized in dimethyl sulfoxide at 400-fold the desired final maximum test concentration and stored frozen prior to use. At the time of drug addition, an aliquot of frozen concentrate is thawed and diluted to twice the desired final maximum test concentration with complete medium containing 50 μg/ml gentamicin.
(§5) Following drug addition, the plates are incubated for an additional 48 h at 37° C., 5% CO2, 95% air, and 100% relative humidity. For adherent cells, the assay is terminated by the addition of cold TCA. Cells are fixed in situ by the gentle addition of […] of cold 50% (w/v) TCA (final concentration, 10% TCA) and incubated for 60 minutes at 4° C. The supernatant is discarded, and the plates are washed five times with tap water and air dried. Sulforhodamine B (SRB) solution (100 μl) at 0.4% (w/v) in 1% acetic acid is added to each well, and plates are incubated for 10 minutes at room temperature. After staining, unbound dye is removed by washing five times with 1% acetic acid and the plates are air dried. Bound stain is subsequently solubilized with 10 mM trizma base, and the absorbance is read on an automated plate reader at a wavelength of 515 nm. For suspension cells, the methodology is the same except that the assay is terminated by fixing settled cells at the bottom of the wells by gently adding 50 μl of 80% TCA (final concentration, 16% TCA). Using the absorbance measurements [time zero, (Tz), control growth, (C), and test growth in the presence of drug (Ti)], the percentage growth is calculated.

CCRF-CEM = experiment: NCI 60 cell line single dose screen; conditions: CCRF-CEM (Leukemia), 10 micromolar, 48 h
From the text: as §1, §2, §3, §4, §5

EKVX = experiment: NCI 60 cell line single dose screen; conditions: EKVX (Non-Small Cell Lung Cancer), 10 micromolar, 48 h
From the text: as §1, §2, §3, §4, §5

HCT-116 = experiment: NCI 60 cell line single dose screen; conditions: HCT-116 (Colon Cancer), 10 micromolar, 48 h
From the text: as §1, §2, §3, §4, §5

HCT-15 = experiment: NCI 60 cell line single dose screen; conditions: HCT-15 (Colon Cancer), 10 micromolar, 48 h
From the text: as §1, §2, §3, §4, §5

HOP-62 = experiment: NCI 60 cell line single dose screen; conditions: HOP-62 (Non-Small Cell Lung Cancer), 10 micromolar, 48 h
From the text: as §1, §2, §3, §4, §5

HS 578T = experiment: NCI 60 cell line single dose screen; conditions: HS 578T (Breast Cancer), 10 micromolar, 48 h
From the text: as §1, §2, §3, §4, §5

IGROV1 = experiment: NCI 60 cell line single dose screen; conditions: IGROV1 (Ovarian Cancer), 10 micromolar, 48 h
From the text: as §1, §2, §3, §4, §5

M14 = experiment: NCI 60 cell line single dose screen; conditions: M14 (Melanoma), 10 micromolar, 48 h
From the text: as §1, §2, §3, §4, §5

NCI-H226 = experiment: NCI 60 cell line single dose screen; conditions: NCI-H226 (Non-Small Cell Lung Cancer), 10 micromolar, 48 h
From the text: as §1, §2, §3, §4, §5

NCI-H322M = experiment: NCI 60 cell line single dose screen; conditions: NCI-H322M (Non-Small Cell Lung Cancer), 10 micromolar, 48 h
From the text: as §1, §2, §3, §4, §5

NCI-H522 = experiment: NCI 60 cell line single dose screen; conditions: NCI-H522 (Non-Small Cell Lung Cancer), 10 micromolar, 48 h
From the text: as §1, §2, §3, §4, §5

OVCAR-4 = experiment: NCI 60 cell line single dose screen; conditions: OVCAR-4 (Ovarian Cancer), 10 micromolar, 48 h
From the text: as §1, §2, §3, §4, §5

OVCAR-5 = experiment: NCI 60 cell line single dose screen; conditions: OVCAR-5 (Ovarian Cancer), 10 micromolar, 48 h
From the text: as §1, §2, §3, §4, §5

PC-3 = experiment: NCI 60 cell line single dose screen; conditions: PC-3 (Prostate Cancer), 10 micromolar, 48 h
From the text: as §1, §2, §3, §4, §5

SF-295 = experiment: NCI 60 cell line single dose screen; conditions: SF-295 (CNS Cancer), 10 micromolar, 48 h
From the text: as §1, §2, §3, §4, §5

SK-OV-3 = experiment: NCI 60 cell line single dose screen; conditions: SK-OV-3 (Ovarian Cancer), 10 micromolar, 48 h
From the text: as §1, §2, §3, §4, §5

T-47D = experiment: NCI 60 cell line single dose screen; conditions: T-47D (Breast Cancer), 10 micromolar, 48 h
From the text: as §1, §2, §3, §4, §5

TK-10 = experiment: NCI 60 cell line single dose screen; conditions: TK-10 (Renal Cancer), 10 micromolar, 48 h
From the text: as §1, §2, §3, §4, §5

UO-31 = experiment: NCI 60 cell line single dose screen; conditions: UO-31 (Renal Cancer), 10 micromolar, 48 h
From the text: as §1, §2, §3, §4, §5

COCCC(=O)NC[C@H](O)[C@H](C)C(=O)NCCC[C@H]1O[C@@]2(CCC[C@@H](CC[C@H](C)/C=C(\C)[C@H](C)O)O2)CCC1C (stereo partly drawn) [Analog 10]
F-actin depolymerization in DU145 cells [1]: A similar effect of 10 on F-actin depolymerization was also observed | Growth Percent (A549/ATCC): 44.50% | Growth Percent (CCRF-CEM): 24.00% | Growth Percent (EKVX): 29.10% | Growth Percent (HCT-116): 55.84% | Growth Percent (HCT-15): 58.89% | Growth Percent (HOP-62): 40.92% | Growth Percent (HS 578T): 46.51% | Growth Percent (IGROV1): 17.52% | Growth Percent (M14): 71.74% | Growth Percent (NCI-H226): 58.32% | Growth Percent (NCI-H322M): 113.58% | Growth Percent (NCI-H522): 32.60% | Growth Percent (OVCAR-4): 45.16% | Growth Percent (OVCAR-5): 61.79% | Growth Percent (PC-3): 66.25% | Growth Percent (SF-295): 13.26% | Growth Percent (SK-OV-3): 59.10% | Growth Percent (T-47D): 71.80% | Growth Percent (TK-10): 30.01% | Growth Percent (UO-31): 22.67%
